Source: US6713260B2, “Methods of identifying compounds that bind to target species under isothermal denaturing conditions” (Pharmacia & Upjohn Company, priority 1999, dated 2004)
Values belong to the compound of their own block, whether it stands above or below them.

Key:
[1] = biological target: T1, Stromelysin (Homo sapiens, UniProt P08254); experiment: Isothermal denaturation of stromelysin monitored by SYPRO Orange fluorescence; format: binding; settings: 75° C.
T1 construct: made in house
Experimental: Time-Dependency of the isothermal denaturation of Stromelysin monitored by SYPRO Orange Fluorescence. […] The data for the control reaction were analyzed using Equation 4, and those for the inhibited reactions with Equation 11. […] The solid lines represent the theoretical fits to the experimental data points.
The time-dependencies of the fluorescence of extrinsic dyes during isothermal denaturation were monitored as follows. The test dye was added to a stirred cuvette containing 2 milliliters (mL) of buffer that had been thermally preequilibrated at the desired temperature. A dye baseline was recorded for 45 seconds and the denaturation reaction initiated by the addition of a small aliquot of the protein stock solution. In this way, the protein reached the temperature of denaturation virtually instantaneously. In separate experiments, the protein was kept at the denaturation temperature in the absence of dye and the reporter molecule added at the end of the reaction. In the latter experiments, the fluorescence increase associated with the addition of dye was always instantaneous.
Two parameters derived from the fluorescence kinetic curves measure the rate of denaturation, namely, the slope at the inflection point, and the first-order rate constant.

[2] = biological target: T1, Stromelysin; experiment: Isothermal denaturation of stromelysin monitored by UV absorbance (hyperchromicity at 280 nm); format: binding; settings: 75° C.; absorbance at 280 nm
Experimental: Sci., 7; 2118-2126 (1998).
UV absorbance was measured using a Perkin-Elmer Lambda 40 UV-Vis dual-beam spectrophotometer (Perkin-Elmer Corp. Norwalk, Conn.). A capped 1.0 cm pathlength quartz cuvette filled with buffer was placed in the reference beam. In the sample beam, a capped 1.0 cm path length quartz cuvette containing 1.5 mL of degassed buffer or buffer plus ligand—less the volume of protein solution to be added—was placed in a thermostated cell holder and equilibrated at the temperature of isothermal denaturation. The temperature was maintained within 0.1° C. using a Neslab Exacal EX200 circulating water bath (Neslab Instruments, Inc. Portsmouth, N.H.). A 1-5 μL aliquot of the protein stock solution was added to the cuvette containing buffer or buffer plus ligand to yield a final volume of 1.5 mL and protein concentration near 0.5 μM. The cuvette was recapped and absorbance at 280 nm was measured every 1 second for up to 30 minutes with a bandwidth of 2 nm and response of 0.5 second. For each protein, the effects of several ligand concentrations were examined ranging from about 0.5 μM to about 400 μM. Cuvettes were thoroughly cleaned as described above with nitric acid and with 10% methanol and rinsed with distilled water and ethanol between experiments.
Absorbance. […]

[3] = biological target: T2, S. aureus thymidylate kinase (TK) (Staphylococcus aureus, UniProt P65248); experiment: biochemical; format: binding
T2 construct: 6-his tag; made in house

[4] = biological target: T3, S. aureus uridylate kinase (UK) (Staphylococcus aureus, UniProt Q2FZ22); experiment: Robotic HTS isothermal denaturation assay, uridylate kinase, Nano Orange
T3 sequence (Q2FZ22 1-240): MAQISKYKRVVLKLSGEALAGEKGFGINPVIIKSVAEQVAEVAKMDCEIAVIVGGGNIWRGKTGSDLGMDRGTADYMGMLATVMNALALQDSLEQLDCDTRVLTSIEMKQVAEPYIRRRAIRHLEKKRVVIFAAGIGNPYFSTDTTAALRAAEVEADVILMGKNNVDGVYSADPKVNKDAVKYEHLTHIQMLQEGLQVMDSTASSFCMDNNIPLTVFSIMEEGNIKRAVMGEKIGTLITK
Text: Temperature was controlled with a circulating waterbath.
Validation of Robotic HTS Assay.

[5] = biological target: T4, uridylate kinase (UK) (Staphylococcus aureus, UniProt Q2FZ22); experiment: Uridylate kinase activity assay at 25° C.; format: biochemical, S. aureus; settings: read-out: apparent Kd obtained from an activity assay
T4 construct: 6-his tag (implied by Ni-NTA purification); made in house
T4 sequence (Q2FZ22 1-240): T3 sequence (Q2FZ22 1-240)

T1 sequence (P08254 100-264 limits assumed): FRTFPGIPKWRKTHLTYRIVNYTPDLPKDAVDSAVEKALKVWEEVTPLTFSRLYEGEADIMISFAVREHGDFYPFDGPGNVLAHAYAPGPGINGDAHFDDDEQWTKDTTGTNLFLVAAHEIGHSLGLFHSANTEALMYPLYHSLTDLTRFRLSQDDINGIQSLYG

- effect on denaturation of stromelysin [1]: inhibited in a dose-dependent manner
Compound: CNC(=O)[C@H](Cc1ccc(O)cc1)NC(=O)Nc1n[nH]c(=S)s1 [PNU-143988]
- effect on hyperchromicity changes [2]: dose-dependent inhibition of both the rate and magnitude

Compound: Cc1cn([C@H]2C[C@H](O)[C@@H](COP(=O)(O)O)O2)c(=O)[nH]c1=O [TMP, Thymidine monophosphate]
- Kd ([3]; Kd calculated from the rate constants): 7.6 ± 0.8 mM
- Kd ([3]; Kd calculated from the slopes): 9.1 ± 1.6 mM

Compound: O=c1ccn([C@@H]2O[C@H](COP(=O)(O)O)[C@@H](O)[C@H]2O)c(=O)[nH]1 [UMP, uridine monophosphate]
- Kd [4]: 5.76 ± 0.95 mM
- effect on denaturation ([4]; 41° C., 96-well microplate, robotic): concentration-dependent
- Kd [5]: 1 mM
